Consider 21 compounds from patent publication US10035790B2, “RORγ modulators” (BRISTOL-MYERS SQUIBB COMPANY, priority 2012, dated 2018).

The first experiment has as its target T1, ligand binding domain of human RORγ (A262-S507) (Homo sapiens, UniProt P51449).
T1 construct: made in house; host or cells: E. coli
T1 sequence (P51449 262-507): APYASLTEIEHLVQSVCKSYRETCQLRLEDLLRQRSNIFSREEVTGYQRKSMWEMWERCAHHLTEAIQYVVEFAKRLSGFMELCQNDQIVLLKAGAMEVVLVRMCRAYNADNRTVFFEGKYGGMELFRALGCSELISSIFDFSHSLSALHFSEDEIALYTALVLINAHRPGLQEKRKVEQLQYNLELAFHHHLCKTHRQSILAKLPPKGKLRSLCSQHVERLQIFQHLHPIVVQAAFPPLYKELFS
The experiment in a line: General RORγ SPA binding assay (competition with [3H]25-hydroxycholesterol). Particulars: IC50, RORγ SPA binding assay, inhibition of [3H]25-hydroxycholesterol binding. The procedure: Example 2 General RORγ SPA Binding Assay
The binding of potential ligands to RORγ is measured by competition with [^3H]25-hydroxycholesterol using a scintillation proximity assay (SPA) binding assay. The ligand binding domain of human RORγ (A262-S507) with an N-terminal His tag is expressed in E. coli and purified using nickel affinity chromotography. 50 nM RORγ (A262-S507) is incubated with test compound at varying concentrations for 15 min at room temperature in PBS buffer containing 0.5% fatty acid free BSA. […] of [^3H]25-hydroxycholesterol is then added, and the reaction is incubated for 15 min. 4 mg/mL of Ysi Copper HIS-TAG SPA Beads (Perkin Elmer) are added, and the mixture is incubated for 30 min. The reaction is read on a MicroBeta Trilux scintillation plate reader (Perkin Elmer). IC50 values are determined from the percentage inhibition of [^3H]25-hydroxycholesterol binding.
Broadly, the IC50 is the midpoint of a concentration-inhibition curve. `CC(O)(COc1ccnc(C(F)(F)F)n1)c1cnc(N)nc1C1CCN(C(=O)Oc2ccc(F)cc2)CC1` (stereo not drawn) [Compound D50, 4-Fluorophenyl 4-[2-amino-5-(1-hydroxy-1-methyl-2-{[2-(trifluoromethyl)pyrimidin-4-yl]oxy}ethyl)pyrimidin-4-yl]piperidine-1-carboxylate] came in with an IC50 of 15 nM.

The experiment is the same for the next values; noted with them: RORγ SPA binding assay, inhibition of [3H]25-hydroxycholesterol binding; read-out: IC50.
Turning to `Cc1ccnc(NCC(C)(O)c2cnc(C)nc2C2CCN(C(=O)Cc3c(F)cccc3F)CC2)c1` (stereo not drawn) [Compound D9, 2-(2,6-difluorophenyl)-1-(4-(5-(2-hydroxy-1-((4-methylpyridin-2-yl)amino)propan-2-yl)-2-methylpyrimidin-4-yl)piperidin-1-yl)ethanone], the IC50 worked out at 118 nM.

With `Cc1ncc(C(=O)NCc2ccnc(Cl)c2)c(C2CCN(C(=O)Cc3c(F)cccc3F)CC2)n1` [Compound A56, N-((2-chloropyridin-4-yl)methyl)-4-(1-(2-(2,6-difluorophenyl)acetyl)piperidin-4-yl)-2-methylpyrimidine-5-carboxamide], the IC50 turned out to be 19.3 nM.

In the case of `CC(O)(COc1ccnc(C(F)(F)F)n1)c1cnc(N)nc1C1CCN(C(=O)Cc2c(F)cccc2F)CC1` (stereo not drawn) [Compound D30, 2-(2-Amino-4-{1-[(2,6-difluorophenyl)acetyl]piperidin-4-yl}pyrimidin-5-yl)-1-{[2-(trifluoromethyl)pyrimidin-4-yl]oxy}propan-2-ol], the 50% inhibitory concentration (IC50) is 4.3 nM.

`C/C(=N\Oc1ccnc(C(F)(F)F)c1)c1cnc(C)nc1C1CCN(C(=O)Cc2c(F)cccc2F)CC1` [Compound B14, (E)-2-(2,6-difluorophenyl)-1-(4-(2-methyl-5-(1-(((2-(trifluoromethyl)pyridin-4-yl)oxy)imino)ethyl)pyrimidin-4-yl)piperidin-1-yl)ethanone]: the IC50 worked out at 4.8 nM.

Regarding `Cc1ncc(C(C)(O)COc2cccc(C(F)(F)F)n2)c(C2CCN(C(=O)Nc3c(F)cccc3F)CC2)n1` (stereo not drawn) [Compound D25, N-(2,6-difluorophenyl)-4-[5-(1-hydroxy-1-methyl-2-{[6-(trifluoromethyl)pyridin-2-yl]oxy}ethyl)-2-methylpyrimidin-4-yl]piperidine-1-carboxamide], the half-inhibitory concentration (IC50) stood at 8.7 nM.

Regarding `Cc1cc(C)cc(CNC(c2cnc(C)nc2C2CCN(C(=O)Cc3c(F)cccc3F)CC2)C(F)(F)F)c1` (stereo not drawn) [Compound F7, 2-(2,6-Difluorophenyl)-1-(4-(5-(1-(3,5-dimethylbenzylamino)-2,2,2-trifluoroethyl)-2-methylpyrimidin-4-yl)piperidin-1-yl)ethanone], the 50% inhibitory concentration (IC50) came to 9.8 nM.

`COc1cc(CNC(=O)c2cnc(C)nc2C2CCN(C(=O)Cc3c(F)cccc3F)CC2)cc(Cl)n1` [Compound A52, N-((2-chloro-6-methoxypyridin-4-yl)methyl)-4-(1-(2-(2,6-difluorophenyl)acetyl)piperidin-4-yl)-2-methylpyrimidine-5-carboxamide]: the IC50 was determined as 7.5 nM.

`CNc1ncc(C(C)(O)COc2ccnc(C(F)(F)F)n2)c(C2CCN(C(=O)Nc3c(F)cccc3F)CC2)n1` (stereo not drawn) [Compound D36, N-(2,6-Difluorophenyl)-4-[5-(1-hydroxy-1-methyl-2-{[2-(trifluoromethyl)pyrimidin-4-yl]oxy}ethyl)-2-(methylamino)pyrimidin-4-yl]piperidine-1-carboxamide]: the IC50 worked out at 15.8 nM.

With `Cc1cc(C)cc(CNC(=O)c2cnc(C)nc2C2CCN(C(=O)Cc3c(F)cccc3F)CC2)c1` [Compound A1], the IC50 came out at 4.7 nM.

For the compound `CC(O)(COc1ccnc(C(F)(F)F)n1)c1cnc(N)nc1C1CCN(C(=O)Nc2c(F)cccc2F)CC1` (stereo not drawn) [Compound D29, 4-[2-Amino-5-(1-hydroxy-1-methyl-2-{[2-(trifluoromethyl)pyrimidin-4-yl]oxy}ethyl)pyrimidin-4-yl]-N-(2,6-difluorophenyl)piperidine-1-carboxamide], the IC50 amounted to 14.4 nM.

In the case of `Nc1ncc(C(=O)COc2ccnc(C(F)(F)F)n2)c(C2CCN(C(=O)Cc3c(F)cccc3F)CC2)n1` [Compound M5, 1-(2-Amino-4-{1-[(2,6-difluorophenyl)acetyl]piperidin-4-yl}pyrimidin-5-yl)-2-{[2-(trifluoromethyl)pyrimidin-4-yl]oxy}ethanone], the IC50 came to 16.3 nM.

Regarding `Cc1ncc(C(O)(CN)COc2cccc(C(F)(F)F)n2)c(C2CCN(C(=O)Nc3c(F)cccc3F)CC2)n1` (stereo not drawn) [Compound N34, 4-{5-[2-Amino-1-hydroxy-1-({[6-(trifluoromethyl)pyridin-2-yl]oxy}methyl)ethyl]-2-methylpyrimidin-4-yl}-N-(2,6-difluorophenyl)piperidine-1-carboxamide], the IC50 worked out at 12.8 nM.

On to `O=C(NCc1cccc(Cl)c1)c1cnc(NCCO)nc1C1CCN(C(=O)Cc2c(F)cccc2F)CC1` [Compound A87, N-(3-chlorobenzyl)-4-(1-(2-(2,6-difluorophenyl)acetyl)piperidin-4-yl)-2-((2-hydroxyethyl)amino)pyrimidine-5-carboxamide], for which the IC50 worked out at 1.7 nM.

`Cc1ncc(/C(CO)=N/Oc2cccc(C(F)(F)F)c2)c(C2CCN(C(=O)Cc3c(F)cccc3F)CC2)n1` [Compound B28, (Z)-2-(2,6-difluorophenyl)-1-(4-(5-(2-hydroxy-1-((3-(trifluoromethyl)phenoxy)imino)ethyl)-2-methylpyrimidin-4-yl)piperidin-1-yl)ethanone]: the IC50 turned out to be 696 nM.

On to `Cc1ncc(C(=O)NCc2cccc(C(F)(F)F)c2)c(C2CCN(C(=O)Cc3c(F)cccc3F)CC2)n1` [Compound A46, 4-(1-(2-(2,6-difluorophenyl)acetyl)piperidin-4-yl)-2-methyl-N-(3-(trifluoromethyl)benzyl)pyrimidine-5-carboxamide], for which the IC50 is 6.1 nM.

Regarding `Cc1nc(C)c(C(O)COc2ccnc(C(F)(F)F)n2)c(C2CCN(C(=O)Nc3c(F)cccc3F)CC2)n1` (stereo not drawn) [Compound N5, N-(2,6-Difluorophenyl)-4-[5-(1-hydroxy-2-{[2-(trifluoromethyl)pyrimidin-4-yl]oxy}ethyl)-2,6-dimethylpyrimidin-4-yl]piperidine-1-carboxamide], the IC50 is 8.4 nM.

Turning to `NCCNc1ncc(C(=O)NCc2cccc(Cl)c2)c(C2CCN(C(=O)Cc3c(F)cccc3F)CC2)n1` [Compound A96, 2-((2-aminoethyl)amino)-N-(3-chlorobenzyl)-4-(1-(2-(2,6-difluorophenyl)acetyl)piperidin-4-yl)pyrimidine-5-carboxamide], the IC50 stood at 202 nM.

`CC(=O)NCC(O)(COc1cccc(C(F)(F)F)n1)c1cnc(C)nc1C1CCN(C(=O)Oc2ccc(F)cc2)CC1` (stereo not drawn) [Compound N46, 4-Fluorophenyl 4-{5-[2-(acetylamino)-1-hydroxy-1-({[6-(trifluoromethyl)pyridin-2-yl]oxy}methyl)ethyl]-2-methylpyrimidin-4-yl}piperidine-1-carboxylate]: the IC50 turned out to be 39 nM.

Turning to `Cc1cc(C)cc(COC(C)(COC[C@H](O)CO)c2cnc(C)nc2C2CCN(C(=O)Cc3c(F)cccc3F)CC2)c1` (mixture of isomers) [Compound E9, 2-(2,6-Difluorophenyl)-1-(4-(5-(1-((R)-2,3-dihydroxypropoxy)-2-(3,5-dimethylbenzyloxy)propan-2-yl)-2-methylpyrimidin-4-yl)piperidin-1-yl)ethanone], the IC50 was found to be 6.2 nM.

For the compound `C/C(=N\Oc1ccnc(C(F)(F)F)n1)c1cnc(C)nc1C1CCN(C(=O)Nc2c(F)cccc2F)CC1` [Compound B36, N-(2,6-Difluorophenyl)-4-{2-methyl-5-[(1E)-N-{[2-(trifluoromethyl)pyrimidin-4-yl]oxy}ethanimidoyl]pyrimidin-4-yl}piperidine-1-carboxamide], the IC50 stood at 158 nM.
